Experimental data: paper PMC7646549, “Novel piperidine derivatives as colchicine binding site inhibitors induce apoptosis and inhibit epithelial-mesenchymal transition against prostate cancer PC3 cells” (Journal of Enzyme Inhibition and Medicinal Chemistry, 2020)

System: T1, tubulin (β-tubulin, colchicine binding site)
T1 construct: gene TUBB; with α-tubulin
Assay: in vitro tubulin polymerisation assay; supported by EBI competition assay (β-tubulin adduct) in PC3 cells
Type: biochemical

IC50: 2.03 µM
SMILES: COc1ccc(CN(C(=O)CN2C(=O)CCCC2=O)c2cc(OC)c(OC)c(OC)c2)cc1 [17a, 2–(2,6-Dioxopiperidin-1-yl)-N-(4-methoxybenzyl)-N-(3,4,5-trimethoxyphenyl) acetamide]
